Assay results from patent publication US8044100B2, “Methods and compositions for treating amyloid-related diseases” (Bellus Health Inc., priority 2004, dated 2011).

System: Aβ peptides (Aβ40, Aβ42) in the plasma and brain of TgCRND8 mice
Assay: Short term treatment (14 or 28 days) in TgCRND8 mice: Aβ levels in plasma and brain by ELISA;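 for Aβ40 Change Insoluble: symbols grade percent change in Aβ versus untreated control with plus for increase and minus for decrease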;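 for Aβ40 Change Soluble: symbols grade percent change in Aβ versus untreated control with plus for increase and minus for decrease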;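 for Aβ42 Change Insoluble: symbols grade percent change in Aβ versus untreated control with plus for increase and minus for decrease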
Assay type: in vivo, mouse
Conditions: for Aβ40 Change Insoluble / Aβ42 Change Insoluble / Aβ42 Change Soluble / Aβ40 Change Soluble: brain homogenate; for Aβ42 Change / Aβ40 Change: plasma
Procedure: The short term therapeutic effect of 19 compounds of the invention was studied. These compounds were administered over a 14 or 28 day period at the end of which the levels of Aβ peptides in the plasma and brain of TgCRND8 animals were determined.
Male and female transgenic mice from the 3rd and 4th B6C3F1 generations were used in this example and given daily subcutaneous or oral administrations of one of a series of compounds for 14 or 28 days. The following abbreviations are used to designate these animals from the 3rd and 4th generation backcross in the present protocol: TgCRND8-2.B6C3F1(N3); TgCRND8-2.B6C3F1 (N4).
Baseline animals (Group 1) consisted of naive TgCRND8-2. B6C3F1(N3) at 11±1 weeks of age. These mice were used to determine the Aβ levels in the plasma and brain of naive transgenic animals at the initiation of treatment.
Starting at 11 weeks of age (±1 week) animals received daily administration of their respective treatment for a period of 14 or 28 days (groups 2-21), at a dose of 250 mg/kg at 10 ml/kg or of vehicle only (water; group 2) or 1% methyl cellulose only (group 21). The route of administration was subcutaneous for water-soluble compounds and oral for compounds solubilized in methylcellulose 1%. (MC 1%). At the end of the treatment periods, plasma and perfused brains were collected for quantification of Aβ levels.
At 11±1 weeks of age for the Baseline group, and at the end of the treatment period (14 or 28 days) for Groups 2 to 21, at 24 hours after the last compound administration animals were sacrificed and samples collected. An approximate blood volume of 500 μl was collected from the orbital sinus and kept on ice until centrifugation at 4° C. at a minimum speed of 3,000 rpm for 10 minutes. Plasma samples were immediately frozen and stored at −80° C. pending analysis. The brains were removed, frozen, and stored at −80° C. awaiting analysis.
Brains were weighted frozen and homogenized with 4 volumes of ice cold 50 mM Tris-Cl pH 8.0 buffer with protease inhibitor cocktail (4 mL of buffer for 1 g of wet brain). Samples were spun at 15000 g for 20 minutes and the supernatants were transferred to fresh tubes. One hundred fifty (150) μl from each supernatant were mixed with 250 μl of 8M guanidine-HCL/50 mM Tris-HCL pH 8.0 (ratio of 0.6 vol supernatant:1 vol 8M guanidium/Tris-HCL 50 mM pH8.0) and 400 μL 5 M guanidium/Tris-HCL 50 mM pH8.0 were added. The tubes were vortexed for 30 seconds and frozen at −80° C. In parallel, pellets were treated with 7 volumes of 5 M guanidine-HCL/50 mM Tris-HCL pH 8.0 (7 mL of guanidine for 1 g of wet brain), vortexed for 30 seconds and frozen at −80° C. Samples were thawed at room temperature, sonicated at 80° C. for 15 minutes and frozen again. This cycle was repeated 3 times to ensure homogeneity and samples were returned to −80° C. pending analysis.
Aβ levels were evaluated in plasma and brain samples by ELISA using Human Aβ40 and Aβ42 Fluorometric ELISA kits from Biosource (Cat. No. 89-344 and 89-348) according to manufacturer's recommended procedures. In short, samples were thawed at room temperature, sonicated for 5 minutes at 80° C. (sonication for brain homogenates; no sonication for plasma samples) and kept on ice. Aβ peptides were captured using 100 μl of the diluted samples to the plate and incubated without shaking at 4° C. overnight. The samples were aspirated and the wells were rinsed 4 times with wash buffer obtained from the Biosource ELISA kit. The anti-Aβ40 or anti-Aβ42 rabbit polyclonal antiserum (specific for the Aβ40 or Aβ42 peptide) was added (100 μl) and the plate was incubated at room temperature for 2 hours with shaking. The wells were aspirated and washed 4 times before adding 100 μl of the alkaline phosphatase labeled anti-rabbit antibody and incubating at room temperature for 2 hours with shaking. The plates were then rinsed 5 times and the fluorescent substrate (100 μl) was added to the plate. […]

[1] = Day 14, methylcellulose group, daily oral
[2] = Day 28, methylcellulose group, daily oral
[3] = Day 14, vehicle group, 250 mg/kg daily
[4] = Day 28, vehicle group, 250 mg/kg daily
[5] = Day 14, vehicle (water) group, 250 mg/kg daily subcutaneous

Structure (SMILES) | Aβ40 Change Insoluble [1] | Aβ42 Change Insoluble [1] | Aβ42 Change Soluble [1] | Aβ40 Change Insoluble [2] | Aβ40 Change Soluble [2] | Aβ42 Change Insoluble [2] | Aβ42 Change Soluble [2] | Aβ42 Change [2] | levels of Aβ peptides in the plasma (after 14 and 28 days of treatment) | Aβ40 Change Insoluble [3] | Aβ40 Change Soluble [3] | Aβ42 Change Insoluble [3] | Aβ42 Change Soluble [3] | Aβ40 Change Insoluble [4] | Aβ40 Change Soluble [4] | Aβ42 Change Insoluble [4] | Aβ42 Change Soluble [4] | Aβ40 Change [5] | Aβ42 Change [5] | Aβ40 Change (Day 28, vehicle (water) group, 250 mg/kg daily subcutaneous)
O=S(=O)(O)CCCNC12CC3CC(CC(C3)C1)C2 [BW] | −−− (decreases of 39% or more) | −−− (decreases of 39% or more) | −− (decreases of 20 to 38%) | − (Decreases in the levels of Aβ of 5 to 19%) | − (Decreases in the levels of Aβ of 5 to 19%) | −− (decreases of 20 to 38%) | − (Decreases in the levels of Aβ of 5 to 19%) | + (increases in the levels of Aβ (relative to untreated control) of 20 to 39%) |  |  |  |  |  |  |  |  |  |  |  | 
CC(C)(C)NCCCS(=O)(=O)O [BX, 3-(t-butyl)amino-1-propanesulfonic acid] |  |  |  |  |  |  |  |  | significant increase | −−− (decreases of 39% or more) | − (Decreases in the levels of Aβ of 5 to 19%) | −−− (decreases of 39% or more) | −− (decreases of 20 to 38%) | −−− (decreases of 39% or more) | −−− (decreases of 39% or more) | − (Decreases in the levels of Aβ of 5 to 19%) | −− (decreases of 20 to 38%) | +++ (increases of 70% or higher) | ++ (increases of 40 to 69%) | +++ (increases of 70% or higher)
